The text below walks through data of US9244073B2, “Assays for detecting enzymatic activity” (Wellstat Diagnostics, LLC, priority 2011, dated 2016).

For test [1], the system named is FXa. The experiment in a line: Detecting FXa activity with biotin- and TAG Plus-conjugated substrate (ECL, loss of signal on cleavage). It counts as biochemical. The source says:
FXa activity can be measured through the use of peptides that include a FXa recognition sequence, a biotin at one terminus of the peptide and a BV-TAG Plus at the other terminus. In this embodiment, FXa recognizes and specifically cleaves the peptide between the arginine amino acid and the next amino acid toward the carboxy terminus, e.g., between arginine and glycine in peptide probe sequences I and II below. The cleavage by FXa results in the separation of biotin from the BV-TAG Plus. When the biotin is captured with streptavidin coated microparticles (Dynabeads M280-SA, Invitrogen, Cat: 112-06D), this loss of BV-TAG Plus can be measured quantitatively by an ECL instrument such as the M-SERIES® M1MR Analyzer (BioVeris Corporation, Gaithersburg, Md.).
A FXa activity calibrator curve was set up in a 96-well U bottom microtiter plate containing a serial dilution of FXa in an assay buffer [20 mM Tris-HCl (pH 7.2), 100 mM NaCl, 0.5% BSA and 6.0 mM CaCl2], with either peptide probe sequence I or II and M280-SA beads (Dynabeads M280-SA, Invitrogen, Cat: 112-06D). To each well was added 50 μL of 2-fold serial dilutions of FXa from 5000, 2500, 1250, 625, 313, 156 and 78.1 ng/mL and 50 μL of peptide probe (sequence I or II) at 10.0 ng/mL. The plate was incubated for 50 minutes on a MicroMix 5 shaker (Siemens) at room temperature and then 20 μL of 500 μg/mL M280-SA beads were added for an additional 10-minute incubation. The beads were washed once in 150 μL of a PBS-based buffer solution containing 1.8 mM KH2PO4, 10 mM Na2HPO4, 120 mM NaCl, 2.7 mM KCl, 0.033% Tween20 and 0.10% KATHON® CG/ICP II (Cat: 48178-U. Sigma, St. Louis, Mo.) and recovered by attaching a plate magnet to the 96-well plate (LIFESEP™ 96F, Dexter Magnetic Technologies Inc., Elk Grove Village, Ill. 60007). Beads were resuspended in 150 μL of the same PBS-based buffer and read in a M1MR Analyzer (Bioveris).

In test [2] the test system is FXa. Put plainly: Detecting FXa activity by capturing the TAG-labeled neoepitope with anti-FLAG M1 beads (ECL). The class given is biochemical. On the procedure: A FXa activity calibrator curve was set up in a 96-well U bottom microtiter plate containing 50 μL of a 3-fold serial dilution of FXa at 1000, 333, 111, 37.0, 12.3, 4.12 and 1.37 ng/mL in the assay buffer (Example 4) and 25 μL of NH2-IEGRDYKDDDDKGS-TAG (SEQ ID NO:5) (1.25, 2.5 or 5.0 μg/mL) in a hot plate at 37° C. for 10 minutes. After the incubation, 50 μL of Bi-anti-FLAG®-M1 antibody prebound beads (200 μg/mL concentration at the ratio of 10 μg of antibody per 1.0 mg of beads) were added, followed by an incubation for another 20 minutes at 37° C. After the incubation, the beads were washed once in 150 μL of the PBS-based buffer solution (Example 3) and were resuspended in 150 μL of the PBS-based buffer before beads were read in a M1MR analyzer (BioVeris).
Chain of FXa (P00742 41-179 limits assumed): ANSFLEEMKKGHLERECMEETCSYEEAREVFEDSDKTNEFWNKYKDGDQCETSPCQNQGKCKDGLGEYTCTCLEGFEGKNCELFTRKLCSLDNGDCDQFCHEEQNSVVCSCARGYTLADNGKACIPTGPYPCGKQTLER
Chain of FXa (P00742 235-488 limits assumed): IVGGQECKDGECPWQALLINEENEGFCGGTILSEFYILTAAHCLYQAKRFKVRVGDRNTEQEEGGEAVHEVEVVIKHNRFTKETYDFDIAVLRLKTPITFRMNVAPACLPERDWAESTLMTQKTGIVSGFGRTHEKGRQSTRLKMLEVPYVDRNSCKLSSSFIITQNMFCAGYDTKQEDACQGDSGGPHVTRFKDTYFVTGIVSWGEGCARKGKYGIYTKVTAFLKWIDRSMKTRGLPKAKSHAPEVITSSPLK

[3] abbreviates: substrate 1.25 μg/mL, FXa 1.37 ng/mL.
[4] abbreviates: substrate 1.25 μg/mL, FXa 4.12 ng/mL.
The mark [5] stands for this setting: substrate 1.25 μg/mL, FXa 12.3 ng/mL.
The mark [6] stands for this setting: substrate 1.25 μg/mL, FXa 37.0 ng/mL.
Setting [7] is: substrate 1.25 μg/mL, FXa 111 ng/mL.
Where [8] appears, read: substrate 1.25 μg/mL, FXa 333 ng/mL.
[9] abbreviates: substrate 1.25 μg/mL, FXa 1000 ng/mL.
The mark [10] stands for this setting: substrate 2.5 μg/mL, FXa 1.37 ng/mL.
Setting [11] is: substrate 2.5 μg/mL, FXa 4.12 ng/mL.
Where [12] appears, read: substrate 2.5 μg/mL, FXa 12.3 ng/mL.
The mark [13] stands for this setting: substrate 2.5 μg/mL, FXa 37.0 ng/mL.
Where [14] appears, read: substrate 2.5 μg/mL, FXa 111 ng/mL.
The mark [15] stands for this setting: substrate 2.5 μg/mL, FXa 333 ng/mL.
Where [16] appears, read: substrate 2.5 μg/mL, FXa 1000 ng/mL.
Setting [17] is: substrate 5.0 μg/mL, FXa 1.37 ng/mL.
Setting [18] is: substrate 5.0 μg/mL, FXa 4.12 ng/mL.
The mark [19] stands for this setting: substrate 5.0 μg/mL, FXa 12.3 ng/mL.
The mark [20] stands for this setting: substrate 5.0 μg/mL, FXa 37.0 ng/mL.
Where [21] appears, read: substrate 5.0 μg/mL, FXa 111 ng/mL.
The mark [22] stands for this setting: substrate 5.0 μg/mL, FXa 333 ng/mL.
[23] abbreviates: substrate 5.0 μg/mL, FXa 1000 ng/mL.

With “Biotin-(mPeg2)IEGRGS (KBv TAG Plus) amide [Peptide Probe Sequence II]”, the “% Signal Decrease” value in test [1] (FXa 78.1 ng/mL) was 0%; in test [1] (FXa 156 ng/mL), −4%; in test [1] (FXa 313 ng/mL), −11%; in test [1] (FXa 625 ng/mL), −10%; in test [1] (FXa 1250 ng/mL) it was −24%; in test [1] (FXa 2500 ng/mL) it was −39%. Moreover, the “% Signal Decrease” value in test [1] (FXa 5000 ng/mL) is −66%. Further, the “Mean Signal” value was determined as 339795 in test [1] (FXa 78.1 ng/mL); 325928 in test [1] (FXa 156 ng/mL); 302632 in test [1] (FXa 313 ng/mL); 305778 in test [1] (FXa 625 ng/mL); 256745 in test [1] (FXa 1250 ng/mL); 208649 in test [1] (FXa 2500 ng/mL). Moreover, the “Mean Signal” value in test [1] (FXa 5000 ng/mL) came out at 116839.

Consider “Biotin-IEGRGS (KBv TAG Plus) amide [Peptide Probe Sequence I]”, for which the “% Signal Decrease” value in test [1] (FXa 78.1 ng/mL) was −3%; in test [1] (FXa 156 ng/mL), −3%; in test [1] (FXa 313 ng/mL) it was −9%; in test [1] (FXa 625 ng/mL) it was −15%; in test [1] (FXa 1250 ng/mL) it was −31%; in test [1] (FXa 2500 ng/mL) it was −53%. Further, in test [1] (FXa 5000 ng/mL), the “% Signal Decrease” value is reported as −76%. Besides, the “Mean Signal” value in test [1] (FXa 78.1 ng/mL) is reported as 413958; in test [1] (FXa 156 ng/mL) it was 413232; in test [1] (FXa 313 ng/mL) it was 388137; in test [1] (FXa 625 ng/mL), 363185; in test [1] (FXa 1250 ng/mL) it was 296182; in test [1] (FXa 2500 ng/mL), 202007. Further, the “Mean Signal” value in test [1] (FXa 5000 ng/mL) is recorded as 103604.

For “NH2-IEGRDYKDDDDKGS-TAG (TAG label; includes cleavage recognition site and binding site for anti-FLAG antibody)”, the “Mean Signal” value amounted to 1140 in test [2] (setting [3]); 2174 in test [2] (setting [4]); 4437 in test [2] (setting [5]); 10667 in test [2] (setting [6]); 20521 in test [2] (setting [7]); 52797 in test [2] (setting [8]). The “Mean Signal” value in test [2] (setting [9]) is 69011; in test [2] (setting [10]), 1393; in test [2] (setting [11]), 3828; in test [2] (setting [12]), 7696; in test [2] (setting [13]) it was 20144; in test [2] (setting [14]), 41788. Besides, the “Mean Signal” value in test [2] (setting [15]) is 62747; in test [2] (setting [16]) it was 78193; in test [2] (setting [17]), 3725; in test [2] (setting [18]) it was 6363; in test [2] (setting [19]) it was 14866; in test [2] (setting [20]), 32274. Besides, the “Mean Signal” value in test [2] (setting [21]) amounted to 62147; in test [2] (setting [22]) it was 78710; in test [2] (setting [23]) it was 86900. Besides, the Signal/Background in test [2] (setting [3]) was 1.9; in test [2] (setting [4]), 3.7; in test [2] (setting [5]), 7.5; in test [2] (setting [6]), 18; in test [2] (setting [7]) it was 35; in test [2] (setting [8]), 89. Further, the Signal/Background in test [2] (setting [9]) came out at 116; in test [2] (setting [10]), 1.6; in test [2] (setting [11]), 4.5; in test [2] (setting [12]), 9.0; in test [2] (setting [13]), 24; in test [2] (setting [14]), 49. Also, the Signal/Background in test [2] (setting [15]) was 73; in test [2] (setting [16]), 91; in test [2] (setting [17]), 2.1; in test [2] (setting [18]) it was 3.6; in test [2] (setting [19]), 8.4; in test [2] (setting [20]), 18. Moreover, the values for the Signal/Background in test [2] (setting [21]), in test [2] (setting [22]) and in test [2] (setting [23]) were 35, 45 and 49, respectively.
